Measurements taken from ChEMBL document CHEMBL1201862, “PubChem BioAssay data set” (2004).
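All cell lines were grown in 96-well plates and treated with compound for 48 hours. GI50 is the concentration that inhibits growth by half.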 Active and inactive are the calls of the source. Cut-off read from the data, not from the text of the source: active = GI50 up to about 1.1 µM and inactive = higher.

Experiments:
Experiment in all cases: NCI anticancer screen, dose series, 48 h
NCI-H460 = system: NCI-H460
TK-10 = system: TK-10
EKVX = system: EKVX
NCI-H226 = system: NCI-H226
UACC-257 = system: UACC-257
SK-OV-3 = system: SK-OV-3
SR = system: SR
OVCAR-4 = system: OVCAR-4
HCC 2998 = system: HCC 2998
K562 = system: K562
OVCAR-5 = system: OVCAR-5
M14 = system: M14
RPMI-8226 = system: RPMI-8226
LXFL 529 = system: LXFL 529
U-251 = system: U-251
SK-MEL-5 = system: SK-MEL-5
NCI-H522 = system: NCI-H522

SMILES	GI50 (NCI-H460)	GI50 (TK-10)	GI50 (EKVX)	GI50 (NCI-H226)	GI50 (UACC-257)	GI50 (SK-OV-3)	GI50 (SR)	GI50 (OVCAR-4)	GI50 (HCC 2998)	GI50 (K562)	GI50 (OVCAR-5)	GI50 (M14)	GI50 (RPMI-8226)	GI50 (LXFL 529)	GI50 (U-251)	GI50 (SK-MEL-5)	GI50 (NCI-H522)
C[N+]1(C)C/C(=C\c2ccccc2)C(=O)/C(=C/c2ccccc2)C1	> 100 µM (inactive)	> 100 µM (inactive)	< 0.01 µM (active)	> 100 µM (inactive)	> 100 µM (inactive)	> 100 µM (inactive)	63 µM (inactive)	> 100 µM (inactive)	> 100 µM (inactive)	62.2 µM (inactive)	> 100 µM (inactive)	> 100 µM (inactive)	51.2 µM (inactive)	70.1 µM (inactive)	31.4 µM (inactive)	72.8 µM (inactive)	–
c1ccc(C2CC(c3ccc4ccccc4c3)=Nc3ccccc3S2)cc1 (centres undefined)	15.7 µM (inactive)	22.3 µM (inactive)	23.2 µM (inactive)	19.4 µM (inactive)	19.5 µM (inactive)	38.5 µM (inactive)	23.7 µM (inactive)	19.5 µM (inactive)	11.9 µM (inactive)	20 µM (inactive)	21.8 µM (inactive)	15.8 µM (inactive)	3.26 µM (inactive)	14.5 µM (inactive)	17.3 µM (inactive)	18.9 µM (inactive)	17 µM (inactive)
CCOC(=O)C1=C(C)N(Cc2ccccc2)C(C)=C(C(=O)OCC)C1c1ccccc1O	42.3 µM (inactive)	47.5 µM (inactive)	24.7 µM (inactive)	19.4 µM (inactive)	26.9 µM (inactive)	47.2 µM (inactive)	15.9 µM (inactive)	34.8 µM (inactive)	44.8 µM (inactive)	33.4 µM (inactive)	> 100 µM (inactive)	33.7 µM (inactive)	–	26.5 µM (inactive)	39.4 µM (inactive)	16.1 µM (inactive)	25.6 µM (inactive)
Cc1nn(C(=O)CC(=O)Nc2ccccc2Cl)c(C)c1/N=N/c1ccccc1Cl	> 100 µM (inactive)	> 100 µM (inactive)	> 100 µM (inactive)	–	> 100 µM (inactive)	> 100 µM (inactive)	> 100 µM (inactive)	> 100 µM (inactive)	> 100 µM (inactive)	> 100 µM (inactive)	> 100 µM (inactive)	> 100 µM (inactive)	–	> 100 µM (inactive)	> 100 µM (inactive)	> 100 µM (inactive)	–
CCCS(=O)(=O)/C(=C(\c1ccc(Br)cc1)S(=O)(=O)CCC)c1ccc(Br)cc1	> 10 µM (inactive)	> 10 µM (inactive)	> 10 µM (inactive)	> 10 µM (inactive)	> 10 µM (inactive)	> 10 µM (inactive)	> 10 µM (inactive)	> 10 µM (inactive)	> 10 µM (inactive)	> 10 µM (inactive)	> 10 µM (inactive)	> 10 µM (inactive)	> 10 µM (inactive)	> 10 µM (inactive)	> 10 µM (inactive)	> 10 µM (inactive)	> 10 µM (inactive)
CC(=O)O/C(C)=C\C(=O)O/N=C(\N)c1ccc(C)cc1	29.6 µM (inactive)	63.8 µM (inactive)	92.3 µM (inactive)	28.1 µM (inactive)	30.8 µM (inactive)	> 100 µM (inactive)	20.5 µM (inactive)	25.8 µM (inactive)	> 100 µM (inactive)	19.6 µM (inactive)	> 100 µM (inactive)	28.4 µM (inactive)	31 µM (inactive)	19.5 µM (inactive)	19.5 µM (inactive)	22.3 µM (inactive)	21 µM (inactive)
CN(CCN(C)C(=O)CCn1ccc(=O)[nH]c1=O)C(=O)CCn1ccc(=O)[nH]c1=O	> 100 µM (inactive)	> 100 µM (inactive)	> 100 µM (inactive)	> 100 µM (inactive)	–	–	> 100 µM (inactive)	> 100 µM (inactive)	> 100 µM (inactive)	> 100 µM (inactive)	> 100 µM (inactive)	> 100 µM (inactive)	> 100 µM (inactive)	> 100 µM (inactive)	> 100 µM (inactive)	> 100 µM (inactive)	> 100 µM (inactive)
O=C1CC(C[C@H](O)C2CCCCC2O)CC(=O)N1Cc1ccccc1 (some centres undefined)	> 100 µM (inactive)	> 100 µM (inactive)	> 100 µM (inactive)	> 100 µM (inactive)	> 100 µM (inactive)	> 100 µM (inactive)	> 100 µM (inactive)	> 100 µM (inactive)	> 100 µM (inactive)	> 100 µM (inactive)	> 100 µM (inactive)	> 100 µM (inactive)	–	> 100 µM (inactive)	> 100 µM (inactive)	> 100 µM (inactive)	> 100 µM (inactive)
CCCC(=O)c1ccc(=O)n(C)c1	> 100 µM (inactive)	> 100 µM (inactive)	> 100 µM (inactive)	> 100 µM (inactive)	–	> 100 µM (inactive)	> 100 µM (inactive)	> 100 µM (inactive)	> 100 µM (inactive)	> 100 µM (inactive)	> 100 µM (inactive)	> 100 µM (inactive)	> 100 µM (inactive)	> 100 µM (inactive)	> 100 µM (inactive)	> 100 µM (inactive)	> 100 µM (inactive)
O=C(O)c1oc2ccc([N+](=O)[O-])c3c2c1CCC3	> 100 µM (inactive)	> 100 µM (inactive)	> 100 µM (inactive)	> 100 µM (inactive)	> 100 µM (inactive)	–	–	> 100 µM (inactive)	> 100 µM (inactive)	–	> 100 µM (inactive)	> 100 µM (inactive)	–	> 100 µM (inactive)	> 100 µM (inactive)	–	> 100 µM (inactive)
c1ccc2c(c1)oc1ccc3nsnc3c12	> 10 µM (inactive)	> 10 µM (inactive)	31.3 µM (inactive)	51.6 µM (inactive)	> 100 µM (inactive)	> 100 µM (inactive)	> 100 µM (inactive)	> 100 µM (inactive)	> 100 µM (inactive)	> 100 µM (inactive)	> 100 µM (inactive)	> 100 µM (inactive)	–	> 100 µM (inactive)	–	> 100 µM (inactive)	> 100 µM (inactive)
COc1cc(C(=O)C/C(CCC(=O)Nc2ccccc2[N+](=O)[O-])=N\NC(=O)CC#N)ccc1O	> 100 µM (inactive)	> 100 µM (inactive)	> 100 µM (inactive)	> 100 µM (inactive)	> 100 µM (inactive)	> 100 µM (inactive)	–	> 100 µM (inactive)	> 100 µM (inactive)	> 100 µM (inactive)	> 100 µM (inactive)	> 100 µM (inactive)	> 100 µM (inactive)	> 100 µM (inactive)	–	> 100 µM (inactive)	> 100 µM (inactive)
COC(=O)C1(C(C)C)CCc2c(OC)ccc(OC)c2C1=O (centres undefined)	> 100 µM (inactive)	> 100 µM (inactive)	75.2 µM (inactive)	–	> 100 µM (inactive)	> 100 µM (inactive)	–	96.6 µM (inactive)	> 100 µM (inactive)	> 100 µM (inactive)	> 100 µM (inactive)	> 100 µM (inactive)	93.3 µM (inactive)	> 100 µM (inactive)	> 100 µM (inactive)	> 100 µM (inactive)	> 100 µM (inactive)
O=C1OC2CCCC[C@@H]2C2C[C@]34CCCCC3[C@@H](C(=O)O4)C12 (some centres undefined)	> 100 µM (inactive)	> 100 µM (inactive)	> 100 µM (inactive)	> 100 µM (inactive)	> 100 µM (inactive)	> 100 µM (inactive)	–	> 100 µM (inactive)	> 100 µM (inactive)	> 100 µM (inactive)	> 100 µM (inactive)	> 100 µM (inactive)	–	> 100 µM (inactive)	> 100 µM (inactive)	> 100 µM (inactive)	> 100 µM (inactive)
O=C(c1ccc(Cl)cc1)N(C(=S)N1CCN(c2ccccc2)CC1)c1ccccc1	> 100 µM (inactive)	> 100 µM (inactive)	–	53.8 µM (inactive)	> 100 µM (inactive)	> 100 µM (inactive)	> 100 µM (inactive)	> 100 µM (inactive)	–	> 100 µM (inactive)	> 100 µM (inactive)	> 100 µM (inactive)	> 100 µM (inactive)	> 100 µM (inactive)	> 100 µM (inactive)	> 100 µM (inactive)	> 100 µM (inactive)
COc1cc(Br)c(/C=N\c2cccc3cc(OC)c(OC)cc23)cc1OC	> 100 µM (inactive)	83.2 µM (inactive)	50.2 µM (inactive)	41.7 µM (inactive)	85.7 µM (inactive)	> 100 µM (inactive)	15.5 µM (inactive)	91.8 µM (inactive)	> 100 µM (inactive)	19.9 µM (inactive)	> 100 µM (inactive)	30 µM (inactive)	23.9 µM (inactive)	25.9 µM (inactive)	42.5 µM (inactive)	36.1 µM (inactive)	> 100 µM (inactive)
CSc1ccc2c(cc1=O)C(NC(=O)c1cc(O)c(OC(=O)O)c(O)c1)CCc1cc(O)c(O)c(O)c1-2 (centres undefined)	20.7 µM (inactive)	> 89.9 µM (inactive)	20 µM (inactive)	18.8 µM (inactive)	31 µM (inactive)	> 89.9 µM (inactive)	–	20.2 µM (inactive)	> 89.9 µM (inactive)	12.2 µM (inactive)	> 8.99 µM (inactive)	12.1 µM (inactive)	14.5 µM (inactive)	16.5 µM (inactive)	16 µM (inactive)	15.7 µM (inactive)	5.87 µM (inactive)
